Data as given in PubChem BioAssay (NCI).
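Growth conditions: 96-well plates. Treatment: test compound, 48 hours, 5 concentrations. Analysis: linear interpolation between bracketing concentrations; unreached endpoints set to highest concentration. TGI denotes the concentration required for complete inhibition of growth.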

Key:
Experiment in all cases: DTP human tumour cell line panel, 48 h
NCI-H226 lung = tested on: NCI-H226 lung
CAKI-1 renal = tested on: CAKI-1 renal
CCRF-CEM leukemia = tested on: CCRF-CEM leukemia
SN12C renal = tested on: SN12C renal
SF-539 CNS = tested on: SF-539 CNS
KM12 colon = tested on: KM12 colon
M19-MEL melanoma = tested on: M19-MEL melanoma
SK-MEL-28 melanoma = tested on: SK-MEL-28 melanoma
RPMI-8226 leukemia = tested on: RPMI-8226 leukemia
SW-620 colon = tested on: SW-620 colon
K-562 leukemia = tested on: K-562 leukemia
HT29 colon = tested on: HT29 colon
UACC-257 melanoma = tested on: UACC-257 melanoma
OVCAR-5 ovarian = tested on: OVCAR-5 ovarian
SNB-75 CNS = tested on: SNB-75 CNS
SR leukemia = tested on: SR leukemia
HOP-62 NSCLC = tested on: HOP-62 NSCLC
SK-MEL-2 melanoma = tested on: SK-MEL-2 melanoma
LOX IMVI melanoma = tested on: LOX IMVI melanoma
SK-OV-3 ovarian = tested on: SK-OV-3 ovarian
OVCAR-3 ovarian = tested on: OVCAR-3 ovarian
TK-10 renal = tested on: TK-10 renal
SK-MEL-5 melanoma = tested on: SK-MEL-5 melanoma
NCI-H460 lung = tested on: NCI-H460 lung
ACHN renal = tested on: ACHN renal
XF 498 CNS = tested on: XF 498 CNS
MOLT-4 leukemia = tested on: MOLT-4 leukemia
A549 NSCLC = tested on: A549 NSCLC
DMS 273 small cell lung = tested on: DMS 273 small cell lung
LXFL 529 NSCLC = tested on: LXFL 529 NSCLC
UACC-62 melanoma = tested on: UACC-62 melanoma
OVCAR-8 ovarian = tested on: OVCAR-8 ovarian
M14 melanoma = tested on: M14 melanoma
A498 renal = tested on: A498 renal
COLO 205 colon = tested on: COLO 205 colon
DLD-1 colon = tested on: DLD-1 colon
HOP-92 NSCLC = tested on: HOP-92 NSCLC
MALME-3M melanoma = tested on: MALME-3M melanoma
OVCAR-4 ovarian = tested on: OVCAR-4 ovarian
DMS 114 small cell lung = tested on: DMS 114 small cell lung
IGROV1 ovarian = tested on: IGROV1 ovarian
HCT-15 colon = tested on: HCT-15 colon
U251 CNS = tested on: U251 CNS
SNB-19 CNS = tested on: SNB-19 CNS
EKVX NSCLC = tested on: EKVX NSCLC
NCI-H23 lung = tested on: NCI-H23 lung
HOP-18 NSCLC = tested on: HOP-18 NSCLC
HCC-2998 colon = tested on: HCC-2998 colon
HCT-116 colon = tested on: HCT-116 colon
KM20L2 colon = tested on: KM20L2 colon
HL-60(TB) leukemia = tested on: HL-60(TB) leukemia
SF-268 CNS = tested on: SF-268 CNS
NCI-H522 lung = tested on: NCI-H522 lung
SF-295 CNS = tested on: SF-295 CNS
786-0 renal = tested on: 786-0 renal
RXF 393 renal = tested on: RXF 393 renal
UO-31 renal = tested on: UO-31 renal
SNB-78 CNS = tested on: SNB-78 CNS

## CN(C)N=Nc1cn[nH]c1C(N)=O
NCI-H226 lung
  TGI: > 100 µM
CAKI-1 renal
  TGI: > 100 µM
CCRF-CEM leukemia
  TGI: > 100 µM
SN12C renal
  TGI: > 100 µM
SF-539 CNS
  TGI: > 100 µM
KM12 colon
  TGI: > 100 µM
M19-MEL melanoma
  TGI: > 100 µM
SK-MEL-28 melanoma
  TGI: > 100 µM
RPMI-8226 leukemia
  TGI: > 100 µM
SW-620 colon
  TGI: > 100 µM
K-562 leukemia
  TGI: > 100 µM
HT29 colon
  TGI: > 100 µM
UACC-257 melanoma
  TGI: > 100 µM
OVCAR-5 ovarian
  TGI: > 100 µM
SNB-75 CNS
  TGI: > 100 µM
SR leukemia
  TGI: > 100 µM
HOP-62 NSCLC
  TGI: > 100 µM
SK-MEL-2 melanoma
  TGI: > 100 µM
LOX IMVI melanoma
  TGI: > 100 µM
SK-OV-3 ovarian
  TGI: > 100 µM
OVCAR-3 ovarian
  TGI: > 100 µM
TK-10 renal
  TGI: > 100 µM
SK-MEL-5 melanoma
  TGI: > 100 µM
NCI-H460 lung
  TGI: > 100 µM
ACHN renal
  TGI: > 100 µM
XF 498 CNS
  TGI: > 100 µM
MOLT-4 leukemia
  TGI: > 100 µM
A549 NSCLC
  TGI: > 100 µM
DMS 273 small cell lung
  TGI: > 100 µM
LXFL 529 NSCLC
  TGI: > 100 µM
UACC-62 melanoma
  TGI: 93.3 µM
OVCAR-8 ovarian
  TGI: > 100 µM
M14 melanoma
  TGI: > 100 µM
A498 renal
  TGI: > 100 µM
COLO 205 colon
  TGI: > 100 µM
DLD-1 colon
  TGI: > 100 µM
HOP-92 NSCLC
  TGI: > 100 µM
MALME-3M melanoma
  TGI: > 100 µM
OVCAR-4 ovarian
  TGI: > 100 µM
DMS 114 small cell lung
  TGI: > 100 µM
IGROV1 ovarian
  TGI: > 100 µM
HCT-15 colon
  TGI: > 100 µM
U251 CNS
  TGI: > 100 µM
SNB-19 CNS
  TGI: > 100 µM
EKVX NSCLC
  TGI: > 100 µM
NCI-H23 lung
  TGI: > 100 µM
HOP-18 NSCLC
  TGI: > 100 µM
HCC-2998 colon
  TGI: > 100 µM
HCT-116 colon
  TGI: > 100 µM
KM20L2 colon
  TGI: > 100 µM
HL-60(TB) leukemia
  TGI: > 100 µM
SF-268 CNS
  TGI: > 100 µM
NCI-H522 lung
  TGI: > 100 µM
SF-295 CNS
  TGI: > 100 µM
786-0 renal
  TGI: > 100 µM

## COc1ccc(-c2csc(=[N+]3CCCCC3)s2)cc1
NCI-H226 lung
  TGI: 9.37 µM
CAKI-1 renal
  TGI: 8.42 µM
CCRF-CEM leukemia
  TGI: 14.6 µM
SN12C renal
  TGI: > 100 µM
SF-539 CNS
  TGI: 95.3 µM
KM12 colon
  TGI: 18.1 µM
M19-MEL melanoma
  TGI: 11.4 µM
SK-MEL-28 melanoma
  TGI: 29.7 µM
RPMI-8226 leukemia
  TGI: 8.36 µM
SW-620 colon
  TGI: > 100 µM
K-562 leukemia
  TGI: 24.2 µM
HT29 colon
  TGI: 29.9 µM
UACC-257 melanoma
  TGI: 26.6 µM
RXF 393 renal
  TGI: 56.5 µM
OVCAR-5 ovarian
  TGI: 76.8 µM
SNB-75 CNS
  TGI: 8.22 µM
SR leukemia
  TGI: 11.2 µM
HOP-62 NSCLC
  TGI: 8.06 µM
SK-MEL-2 melanoma
  TGI: 16.6 µM
UO-31 renal
  TGI: > 100 µM
LOX IMVI melanoma
  TGI: > 100 µM
SK-OV-3 ovarian
  TGI: 17.6 µM
OVCAR-3 ovarian
  TGI: 31.6 µM
TK-10 renal
  TGI: > 100 µM
SK-MEL-5 melanoma
  TGI: 4.76 µM
NCI-H460 lung
  TGI: 44.8 µM
ACHN renal
  TGI: > 100 µM
XF 498 CNS
  TGI: 17.8 µM
MOLT-4 leukemia
  TGI: 10.3 µM
A549 NSCLC
  TGI: > 100 µM
DMS 273 small cell lung
  TGI: 13.3 µM
LXFL 529 NSCLC
  TGI: 26.9 µM
UACC-62 melanoma
  TGI: 24.1 µM
OVCAR-8 ovarian
  TGI: > 100 µM
M14 melanoma
  TGI: > 100 µM
COLO 205 colon
  TGI: 2.85 µM
DLD-1 colon
  TGI: > 100 µM
HOP-92 NSCLC
  TGI: 7.73 µM
MALME-3M melanoma
  TGI: 13.1 µM
OVCAR-4 ovarian
  TGI: 36.1 µM
IGROV1 ovarian
  TGI: > 100 µM
HCT-15 colon
  TGI: > 100 µM
U251 CNS
  TGI: > 100 µM
SNB-19 CNS
  TGI: > 100 µM
EKVX NSCLC
  TGI: > 100 µM
SNB-78 CNS
  TGI: > 100 µM
NCI-H23 lung
  TGI: 6.58 µM
HOP-18 NSCLC
  TGI: 83 µM
HCC-2998 colon
  TGI: > 100 µM
HCT-116 colon
  TGI: 27.8 µM
KM20L2 colon
  TGI: 24 µM
HL-60(TB) leukemia
  TGI: 10.2 µM
SF-268 CNS
  TGI: 23.5 µM
NCI-H522 lung
  TGI: 5.17 µM
SF-295 CNS
  TGI: 8.73 µM
786-0 renal
  TGI: > 100 µM
